Among the data in ChEMBL document CHEMBL5113460, “Discovery of dual inhibitors of topoisomerase I and Cyclooxygenase-2 for colon cancer therapy” (Eur J Med Chem, 2022) are IC50 and inhibition values, retold here.

Experiment [1] relates to HT-29. The experiment can be described thus: Antitumor activity against human HT-29 cells assessed as inhibition of cell proliferation incubated for 72 hrs by MTT assay. The format is functional, cell-based. The following applies: HT-29, 72 h.
The test system of experiment [2] is RKO. The experiment can be described thus: Antitumor activity against human RKO cells assessed as inhibition of cell proliferation incubated for 72 hrs by MTT assay. The format is functional, cell-based.
Experiment [3] addresses T1, DNA topoisomerase 1 (Homo sapiens) (UniProt P11387).
T1 sequence (whole entry): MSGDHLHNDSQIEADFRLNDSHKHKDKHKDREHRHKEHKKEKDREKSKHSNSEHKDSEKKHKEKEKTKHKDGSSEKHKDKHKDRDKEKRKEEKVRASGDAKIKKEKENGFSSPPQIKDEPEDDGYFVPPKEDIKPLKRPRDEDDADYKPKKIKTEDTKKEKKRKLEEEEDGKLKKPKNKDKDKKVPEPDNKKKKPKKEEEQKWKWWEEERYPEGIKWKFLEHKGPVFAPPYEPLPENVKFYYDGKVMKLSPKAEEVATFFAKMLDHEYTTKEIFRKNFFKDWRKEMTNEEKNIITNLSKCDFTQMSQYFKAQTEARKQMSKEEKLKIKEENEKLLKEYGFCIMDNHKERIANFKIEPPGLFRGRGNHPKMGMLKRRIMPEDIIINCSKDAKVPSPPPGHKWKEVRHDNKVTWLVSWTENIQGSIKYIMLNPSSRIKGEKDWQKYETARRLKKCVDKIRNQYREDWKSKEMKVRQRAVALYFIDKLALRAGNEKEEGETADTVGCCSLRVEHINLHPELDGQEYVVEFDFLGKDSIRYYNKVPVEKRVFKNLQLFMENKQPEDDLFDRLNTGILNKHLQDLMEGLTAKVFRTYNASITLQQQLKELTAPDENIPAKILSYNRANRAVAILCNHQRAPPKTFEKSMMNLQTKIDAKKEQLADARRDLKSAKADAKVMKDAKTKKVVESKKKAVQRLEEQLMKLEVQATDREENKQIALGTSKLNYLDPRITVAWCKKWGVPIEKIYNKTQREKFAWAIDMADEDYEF
Briefly: Inhibition of topoisomerase 1 (unknown origin) assessed as relaxation of supercoiled plasmid pBR322 DNA at 10 uM incubated for 45 mins by ethidium bromide staining based agarose gel electrophoresis.

In experiment [4] the test system is SW480. Briefly: Antitumor activity against human SW480 cells assessed as inhibition of cell proliferation incubated for 72 hrs by MTT assay. The experiment is classed as functional, cell-based. The conditions noted are these: SW480, 72 h.
Experiment [5] deals with HCT-116. Briefly: Antitumor activity against human HCT-116 cells assessed as inhibition of cell proliferation incubated for 72 hrs by MTT assay. The format is functional, cell-based. The conditions noted are these: HCT-116, 72 h.
For experiment [6], the target named is T1, DNA topoisomerase 1 (Homo sapiens). Briefly: Inhibition of topoisomerase 1 (unknown origin) assessed as relaxation of supercoiled plasmid pBR322 DNA at 1 uM incubated for 45 mins by ethidium bromide staining based agarose gel electrophoresis.
For experiment [7], the target named is Prostaglandin G/H synthase 2 (Homo sapiens) (UniProt P35354). Briefly: Inhibition of COX-2 (unknown origin) at 30 uM.
Experiment [8] concerns LoVo. Briefly: Antitumor activity against human LoVo cells assessed as inhibition of cell proliferation incubated for 72 hrs by MTT assay. The experiment is classed as functional, cell-based.
Experiment [9] has as its target Prostaglandin G/H synthase 2 (Homo sapiens) (UniProt P35354). Briefly: Inhibition of COX-2 (unknown origin) at 3 uM.

Structures are written as SMILES. Some results are limits rather than exact numbers.

Prostaglandin G/H synthase 2 (Homo sapiens), sequence (P35354 whole entry, looked up): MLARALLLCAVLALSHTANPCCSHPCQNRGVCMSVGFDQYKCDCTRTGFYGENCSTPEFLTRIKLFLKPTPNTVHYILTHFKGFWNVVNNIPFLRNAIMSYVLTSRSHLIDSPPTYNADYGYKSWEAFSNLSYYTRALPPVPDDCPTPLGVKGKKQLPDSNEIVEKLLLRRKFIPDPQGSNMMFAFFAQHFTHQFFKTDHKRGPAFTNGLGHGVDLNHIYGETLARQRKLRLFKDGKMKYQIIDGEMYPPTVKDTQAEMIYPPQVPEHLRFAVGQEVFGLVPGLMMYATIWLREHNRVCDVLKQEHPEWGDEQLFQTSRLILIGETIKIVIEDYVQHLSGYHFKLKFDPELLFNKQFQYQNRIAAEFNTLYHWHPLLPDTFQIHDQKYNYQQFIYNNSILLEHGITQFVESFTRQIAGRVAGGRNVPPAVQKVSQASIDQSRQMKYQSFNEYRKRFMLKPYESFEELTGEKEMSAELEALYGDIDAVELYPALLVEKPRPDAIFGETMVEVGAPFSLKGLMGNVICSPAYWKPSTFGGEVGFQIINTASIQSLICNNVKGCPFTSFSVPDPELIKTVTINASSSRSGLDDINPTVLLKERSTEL

For `Cc1c(Cl)cccc1Nc1ccccc1C(=O)Nc1ccc(N2CCN(S(C)(=O)=O)CC2)cc1`, the IC50 in [1], in experiment [2], in experiment [4], in experiment [5] and in experiment [8] was more than 30 µM throughout. For the same compound, the inhibition in experiment [3] was 19.7%; in [6], 19.5%; in experiment [7], 34.2%; in experiment [9], 24.5%.
As to `Cc1c(Cl)cccc1Nc1ccccc1C(=O)Nc1ccc(OC(=O)CO)cc1`, the IC50 in experiment [1] is 13.6 µM; in experiment [2], 14.1 µM; in [4], more than 30 µM; in experiment [5], 13.5 µM; in experiment [8] it was more than 30 µM. The inhibition was found to be 45.1% in experiment [3], 97.9% in experiment [7] and 24.9% in experiment [9].
Turning to `Cc1c(Cl)cccc1Nc1ccccc1C(=O)Nc1ccc(OCCO)cc1`, the IC50 was 6.83 µM in experiment [1]; 16.7 µM in experiment [2]; more than 30 µM in [4]; 9.65 µM in [5]; 24.7 µM in [8]. Further, the inhibition was determined as 46.2% in experiment [3], 47.9% in experiment [7] and 22.6% in experiment [9].
With `CC(=O)N1CCN(c2ccc(NC(=O)c3ccccc3Nc3cccc(Cl)c3C)cc2)CC1`, the 50% inhibitory concentration (IC50) in experiment [1], in experiment [2], in experiment [4], in experiment [5] and in experiment [8] was more than 30 µM throughout. The results for the inhibition in experiment [3], in [7] and in [9] were 29%, 60.3% and 37.6%, respectively.
`COCCOc1ccc(NC(=O)c2ccccc2Nc2cccc(Cl)c2C)cc1`: the IC50 in [1] is 7.48 µM; in [2] it was 15.4 µM; in experiment [4], more than 30 µM; in experiment [5], more than 30 µM; in experiment [8] it was 14.7 µM. For the same compound, the inhibition in experiment [3] came to 29.3%; in experiment [6], 25%; in [7], 36.5%; in experiment [9], 31.7%.
Regarding `Cc1c(Cl)cccc1Nc1ccccc1C(=O)Nc1ccc(N2CCN(C)CC2)cc1`, the IC50 in experiment [1] amounted to 2.09 µM; in [2], 6.61 µM; in experiment [4], 11.3 µM; in [5], 7.58 µM; in [8] it was 5 µM. Moreover, the inhibition in experiment [3] turned out to be 67.8%; in experiment [6] it was 25.4%; in experiment [7] it was 100%; in [9], 54.4%.
`Cc1c(Cl)cccc1Nc1ccccc1C(=O)Nc1ccc(N2CCOCC2)cc1`: the IC50 in experiment [1] was 6.4 µM; in [2], more than 30 µM; in [4], more than 30 µM; in experiment [5], more than 30 µM; in experiment [8], more than 30 µM. Further, the inhibition in [3] was determined as 14.5%; in experiment [7] it was 42.9%; in [9], 41.6%.
As to `Cc1c(Cl)cccc1Nc1ccccc1C(=O)Nc1ccc(N2CCN(C(=O)OC(C)(C)C)CC2)cc1`, the IC50 in experiment [1] was 11.9 µM; in [2] it was more than 30 µM; in [4], more than 30 µM; in experiment [5], more than 30 µM; in [8], more than 30 µM. For the same compound, the inhibition in experiment [3] came to 20.4%; in [7], 41.9%; in [9], 18.9%.
Regarding `O=c1[nH]cc(F)c(=O)[nH]1` [FLUOROURACIL], the IC50 was 12.2 µM in experiment [1], more than 30 µM in experiment [4], 7.77 µM in [5] and 8.35 µM in [8].
As to `COCC(=O)Oc1ccc(NC(=O)c2ccccc2Nc2cccc(Cl)c2C)cc1`, the 50% inhibitory concentration (IC50) in experiment [1] is 18.7 µM; in [2], 14 µM; in [4] it was more than 30 µM; in experiment [5], 12.6 µM; in experiment [8] it was more than 30 µM. Moreover, the values for the inhibition in experiment [3], in experiment [7] and in experiment [9] were 16.6%, 47.7% and 25.2%, respectively.
Regarding `CCN1CCN(c2ccc(NC(=O)c3ccccc3Nc3cccc(Cl)c3C)cc2)CC1`, the IC50 in [1] worked out at 2.99 µM; in [2], 10 µM; in [4] it was 15.8 µM; in experiment [5], 11.5 µM; in [8], 9.51 µM. The inhibition is 71.9% in experiment [3], 100% in [7] and 37.1% in [9].
Take `Cc1c(Cl)cccc1Nc1ccccc1C(=O)Nc1ccc(N2CCN(C(C)C)CC2)cc1`: the IC50 in [1] is 2.97 µM; in [2], 10.8 µM; in experiment [4] it was 10.3 µM; in [5], 12 µM; in experiment [8], 8.29 µM. The inhibition in experiment [3] stood at 54.6%; in experiment [6], 37.5%; in experiment [7] it was 83.7%; in experiment [9] it was 30.1%.
For `CCCCN1CCN(c2ccc(NC(=O)c3ccccc3Nc3cccc(Cl)c3C)cc2)CC1`, the IC50 is 9.83 µM in experiment [1]; 15.2 µM in experiment [2]; 18.3 µM in [4]; 13.2 µM in experiment [5]; more than 30 µM in [8]. In addition, the inhibition in [3] was determined as 53.2%; in experiment [6] it was 27.6%; in experiment [7], 58.3%; in [9] it was 42.2%.
In the case of `Cc1c(Cl)cccc1Nc1ccccc1C(=O)Nc1ccc(OCCN)cc1`, the IC50 was found to be 12 µM in [1]; 9.22 µM in experiment [2]; 25.3 µM in [4]; 6.41 µM in [5]; 12.9 µM in experiment [8]. The inhibition in experiment [3] is 63.8%; in experiment [6], 41.3%; in [7] it was 43.2%; in experiment [9] it was 28.7%.
Consider `CCCN1CCN(c2ccc(NC(=O)c3ccccc3Nc3cccc(Cl)c3C)cc2)CC1`, for which the IC50 was 6.35 µM in [1]; 10.1 µM in experiment [2]; 16.9 µM in [4]; 13.4 µM in experiment [5]; 13.5 µM in experiment [8]. Also, the inhibition in experiment [3] was determined as 63.1%; in experiment [7] it was 81%; in [9], 36.5%.
In the case of `Cc1c(Cl)cccc1Nc1ccccc1C(=O)Nc1ccc(N2CCN(c3ccccc3)CC2)cc1`, the IC50 in [1], in experiment [2], in experiment [4], in [5] and in experiment [8] was more than 30 µM throughout. Besides, the inhibition in experiment [3] amounted to 13.9%; in experiment [6] it was 12.6%; in [7], 37.8%; in experiment [9], 27.6%.
Turning to `Cc1c(Cl)cccc1Nc1ccccc1C(=O)Nc1ccc(C(N)=O)cc1`, the IC50 is 26.1 µM in experiment [1]; more than 30 µM in experiment [2]; more than 30 µM in experiment [4]; 17.5 µM in experiment [5]; 22.8 µM in experiment [8]. Moreover, the inhibition was 19.6% in experiment [3] and 3.53% in experiment [7].
On to `Cc1c(Cl)cccc1Nc1ccccc1C(=O)Nc1ccc(NCCO)cc1`, for which the IC50 is 12.9 µM in experiment [1]; 29 µM in [2]; more than 30 µM in [4]; 13.9 µM in [5]; more than 30 µM in [8]. For the same compound, the inhibition in experiment [3] turned out to be 40.9%; in experiment [7], 100%; in experiment [9] it was 69%.
As for `Cc1c(Cl)cccc1Nc1ccccc1C(=O)Nc1ccc(S(N)(=O)=O)cc1`, the IC50 was found to be 28.8 µM in experiment [1]; 13.7 µM in [2]; 14.7 µM in experiment [4]; 7.7 µM in experiment [5]; 13.3 µM in [8]. For the same compound, the inhibition is 24.4% in experiment [3], 19.8% in experiment [6], 71.3% in experiment [7] and 42% in [9].
